Earlier results in patent US20230330042A1, “FORMULATION FOR ORAL ADMINISTRATION” (NIPPON ZOKI PHARMACEUTICAL CO., LTD., priority 2020, published 2023).
Where two headings read alike, the source gives them in different places.

Experiments:
[1] = in vivo
[2] = target: κ-opioid receptor (Homo sapiens, UniProt P41145); conditions: read-out: Ki κ
[3] = target: Noradrenaline reuptake (Homo sapiens, UniProt P23975)
[4] = target: δ-opioid receptor (Homo sapiens, UniProt P41143); conditions: read-out: Ki δ; Mean value (n = 2-3)
Chain of δ-opioid receptor (P41143 whole entry): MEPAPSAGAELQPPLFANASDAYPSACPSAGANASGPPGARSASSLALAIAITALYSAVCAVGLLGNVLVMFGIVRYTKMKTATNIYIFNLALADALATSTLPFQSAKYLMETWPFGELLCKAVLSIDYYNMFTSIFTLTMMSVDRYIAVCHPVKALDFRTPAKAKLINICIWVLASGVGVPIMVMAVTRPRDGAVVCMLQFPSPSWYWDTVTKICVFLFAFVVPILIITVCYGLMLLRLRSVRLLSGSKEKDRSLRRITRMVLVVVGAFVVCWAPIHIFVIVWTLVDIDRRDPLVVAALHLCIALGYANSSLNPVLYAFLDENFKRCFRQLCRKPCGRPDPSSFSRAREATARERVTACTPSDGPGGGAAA

[5] = target: Serotonin reuptake (Homo sapiens, UniProt P31645); conditions: read-out: Ki Serotonin
Chain of Serotonin reuptake (P31645 whole entry): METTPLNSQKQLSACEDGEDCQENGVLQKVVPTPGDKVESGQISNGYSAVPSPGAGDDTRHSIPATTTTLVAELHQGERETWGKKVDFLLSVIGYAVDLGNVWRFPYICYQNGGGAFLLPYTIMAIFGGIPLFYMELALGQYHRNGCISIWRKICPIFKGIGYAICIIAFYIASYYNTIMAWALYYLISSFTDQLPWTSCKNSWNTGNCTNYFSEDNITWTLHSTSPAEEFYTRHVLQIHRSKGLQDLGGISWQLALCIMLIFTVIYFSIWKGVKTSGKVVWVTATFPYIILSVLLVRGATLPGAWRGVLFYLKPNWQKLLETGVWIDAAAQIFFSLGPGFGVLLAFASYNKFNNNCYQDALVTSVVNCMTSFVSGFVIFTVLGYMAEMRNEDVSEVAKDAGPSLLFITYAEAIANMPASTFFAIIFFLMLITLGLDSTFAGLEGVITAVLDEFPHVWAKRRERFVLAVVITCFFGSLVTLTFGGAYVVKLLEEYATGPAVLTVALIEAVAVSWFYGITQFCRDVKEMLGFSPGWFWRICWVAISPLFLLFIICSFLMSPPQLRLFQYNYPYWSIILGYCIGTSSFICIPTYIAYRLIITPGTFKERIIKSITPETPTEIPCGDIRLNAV

[6] = target: μ-opioid receptor (Homo sapiens, UniProt P35372); conditions: read-out: Ki μ; Mean value (n = 2-3)
Chain of μ-opioid receptor (P35372 whole entry, species assumed): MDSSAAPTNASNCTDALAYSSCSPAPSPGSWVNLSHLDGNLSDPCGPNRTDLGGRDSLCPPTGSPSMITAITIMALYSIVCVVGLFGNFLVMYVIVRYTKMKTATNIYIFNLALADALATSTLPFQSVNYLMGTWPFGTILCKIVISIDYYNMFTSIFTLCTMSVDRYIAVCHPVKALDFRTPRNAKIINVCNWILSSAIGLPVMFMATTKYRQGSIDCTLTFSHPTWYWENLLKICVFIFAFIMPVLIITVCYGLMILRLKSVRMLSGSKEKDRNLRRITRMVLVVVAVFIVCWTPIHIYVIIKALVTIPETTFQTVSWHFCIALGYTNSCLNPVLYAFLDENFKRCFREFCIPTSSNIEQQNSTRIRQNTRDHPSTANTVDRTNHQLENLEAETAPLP

[7] = Mean value (n = 2-3); NA: no activity at 10 μmol/L; read-out: Ki Noradrenaline
[8] = read-out: Ki Noradrenaline; Mean value (n = 2-3); NA: no activity at 10 μmol/L

Chain of κ-opioid receptor (P41145 whole entry): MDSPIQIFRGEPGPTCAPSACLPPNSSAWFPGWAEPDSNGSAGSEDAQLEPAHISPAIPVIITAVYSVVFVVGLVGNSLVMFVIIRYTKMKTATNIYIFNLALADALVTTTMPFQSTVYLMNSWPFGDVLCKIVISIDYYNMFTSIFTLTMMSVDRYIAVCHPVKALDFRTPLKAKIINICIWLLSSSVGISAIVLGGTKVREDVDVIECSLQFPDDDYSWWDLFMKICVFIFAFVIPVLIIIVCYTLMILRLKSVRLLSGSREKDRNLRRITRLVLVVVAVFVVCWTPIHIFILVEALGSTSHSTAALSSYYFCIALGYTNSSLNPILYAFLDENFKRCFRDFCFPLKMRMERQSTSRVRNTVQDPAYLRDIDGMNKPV
Chain of Noradrenaline reuptake (P23975 whole entry): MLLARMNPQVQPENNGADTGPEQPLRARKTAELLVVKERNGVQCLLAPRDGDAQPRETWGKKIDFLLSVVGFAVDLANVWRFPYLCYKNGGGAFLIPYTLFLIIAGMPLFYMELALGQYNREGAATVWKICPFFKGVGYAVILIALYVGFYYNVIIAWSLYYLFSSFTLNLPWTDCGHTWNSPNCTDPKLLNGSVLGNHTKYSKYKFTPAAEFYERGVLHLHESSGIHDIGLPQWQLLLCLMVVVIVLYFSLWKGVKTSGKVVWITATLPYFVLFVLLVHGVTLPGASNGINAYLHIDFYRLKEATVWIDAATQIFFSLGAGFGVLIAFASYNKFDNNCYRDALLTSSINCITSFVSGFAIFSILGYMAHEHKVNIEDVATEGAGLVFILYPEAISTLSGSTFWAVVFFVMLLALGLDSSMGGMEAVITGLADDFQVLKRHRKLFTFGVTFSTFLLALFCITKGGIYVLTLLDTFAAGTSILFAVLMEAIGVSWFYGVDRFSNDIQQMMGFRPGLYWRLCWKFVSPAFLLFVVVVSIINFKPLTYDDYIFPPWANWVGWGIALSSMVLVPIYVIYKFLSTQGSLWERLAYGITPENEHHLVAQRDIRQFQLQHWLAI

Compound | Ki ([2]; Mean value (n = 2-3)) [µM] | Ki [3, 7] [µM] | Ki [4] [µM] | Ki [2] [µM] | also measured
CN(C)CC1CCCCC1(O)c1cccc(O)c1 (racemic) [(±)-M1, O-desmethyltramadol] | 0.242 | 1.52 | – | – | half-life ([1]; po): 6 to 7 h
COc1cccc([C@@]2(O)CCCC[C@@H]2CN(C)C)c1 (racemic) [(±)-Tramadol, (1RS,2RS)-2-[(dimethylamino)methyl]-1-(3-methoxyphenyl)cyclohexanol] | – | – | 57.7 | 42.7 | unchanged tramadol and metabolites excreted through the kidney [1]: about 90%; half-life ([1]; po): 5 to 6 h; time after administration at which the maximum drug concentration is reached ([1]; po): 1.6 to 1.9 h; time at which the maximum concentration in the brain is reached ([1]; po): 10 min; Ki [3, 8]: 0.785 µM
CN(C)CC1CCCCC1(O)c1cccc(O)c1 (single isomer, unassigned; (+)) [(+)-M1] | 0.706 | 14.4 | 0.594 | – | –
COc1cccc(C2(O)CCCCC2CN(C)C)c1 (single isomer, unassigned; (+)) [(+)-Tramadol, (+)-tramadol] | – | 2.51 | 6.24 | 54 | –
CN(C)CC1CCCCC1(O)c1cccc(O)c1 (single isomer, unassigned; (-)) [(−)-M1] | 32.9 | 0.857 | 30.5 | – | –
COc1cccc(C2(O)CCCCC2CN(C)C)c1 (single isomer, unassigned; (-)) [(−)-Tramadol, (−)-tramadol] | – | 0.432 | 213 | 53.5 | –
COc1ccc2c3c1O[C@H]1[C@@H](O)C=C[C@H]4[C@@H](C2)N(C)CC[C@@]341 [Codeine] | – | – | – | – | Ki [3, 8]: > 10 µM; Ki [5]: > 10 µM
CN(C)CCCN1c2ccccc2CCc2ccccc21 [Imipramine] | – | – | 12.7 | – | Ki [6]: 3.73 µM
